Data on 5 compounds can be found in ChEMBL document CHEMBL3393036, “Tetra-substituted pyridinylimidazoles as dual inhibitors of p38α mitogen-activated protein kinase and c-Jun N-terminal kinase 3 for potential treatment of neurodegenerative diseases” (J Med Chem, 2015).

The inhibition is the drop in the measured response relative to a control, in per cent.

The target in test [1] is T1, Activin receptor type-1 (Homo sapiens) (UniProt Q04771).
T1 sequence (whole entry): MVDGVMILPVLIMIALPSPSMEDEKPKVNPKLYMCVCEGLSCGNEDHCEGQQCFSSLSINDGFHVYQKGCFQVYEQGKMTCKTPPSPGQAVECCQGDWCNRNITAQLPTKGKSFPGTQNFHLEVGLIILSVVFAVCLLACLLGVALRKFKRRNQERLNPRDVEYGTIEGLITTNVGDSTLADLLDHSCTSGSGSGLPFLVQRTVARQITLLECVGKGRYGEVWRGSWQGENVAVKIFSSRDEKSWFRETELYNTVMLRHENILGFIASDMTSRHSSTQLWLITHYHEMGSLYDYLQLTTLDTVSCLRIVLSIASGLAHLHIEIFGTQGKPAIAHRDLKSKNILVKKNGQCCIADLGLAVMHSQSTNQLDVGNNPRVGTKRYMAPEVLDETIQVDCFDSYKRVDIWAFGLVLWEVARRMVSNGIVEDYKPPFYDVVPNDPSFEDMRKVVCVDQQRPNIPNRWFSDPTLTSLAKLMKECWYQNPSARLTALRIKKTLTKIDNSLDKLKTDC
The test can be described thus: Inhibition of ACVR1 (ALK2) (unknown origin) at 5.5 uM by Caliper Mobility Shift Assay.

Test [2] has as its target Fibroblast growth factor receptor 1 (Homo sapiens) (UniProt P11362). The test can be described thus: Inhibition of FGFR1 (unknown origin) at 5.5 uM by Caliper Mobility Shift Assay.
Test [3] concerns the target Insulin receptor (Homo sapiens) (UniProt P06213). The test can be described thus: Inhibition of INSR (unknown origin) at 5.5 uM by Caliper Mobility Shift Assay.
Test [4] concerns the target T2, Serine/threonine-protein kinase 4 (Homo sapiens) (UniProt Q13043).
T2 sequence (whole entry): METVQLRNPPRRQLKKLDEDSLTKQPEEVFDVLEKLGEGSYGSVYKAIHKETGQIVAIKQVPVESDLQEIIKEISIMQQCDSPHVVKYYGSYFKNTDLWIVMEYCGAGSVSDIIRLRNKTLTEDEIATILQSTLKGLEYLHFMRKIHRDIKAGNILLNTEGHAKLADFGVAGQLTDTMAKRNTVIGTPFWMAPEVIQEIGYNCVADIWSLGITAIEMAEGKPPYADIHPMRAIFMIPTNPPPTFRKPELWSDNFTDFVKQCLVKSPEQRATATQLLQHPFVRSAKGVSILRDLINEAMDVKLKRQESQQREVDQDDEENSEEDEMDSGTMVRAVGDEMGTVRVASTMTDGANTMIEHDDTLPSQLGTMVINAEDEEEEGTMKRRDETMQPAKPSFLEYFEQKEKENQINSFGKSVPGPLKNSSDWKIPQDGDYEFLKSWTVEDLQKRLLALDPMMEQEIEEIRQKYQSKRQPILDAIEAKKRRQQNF
The test can be described thus: Inhibition of STK4 (unknown origin) at 5.5 uM by Caliper Mobility Shift Assay.

Test [5] addresses Epidermal growth factor receptor (Homo sapiens) (UniProt P00533). The test can be described thus: Inhibition of EGFR (unknown origin) assessed as phosphorylation of ATF-2 at 5.5 uM by ELISA. On the technique in general: ELISA stands for enzyme-linked immunosorbent assay.
Test [6] addresses T1, Activin receptor type-1 (Homo sapiens). The test can be described thus: Inhibition of ALK2 (unknown origin) assessed as phosphorylation of ATF-2 at 5.5 uM by ELISA.

Fibroblast growth factor receptor 1 (Homo sapiens), sequence (P11362 22-822 limits assumed): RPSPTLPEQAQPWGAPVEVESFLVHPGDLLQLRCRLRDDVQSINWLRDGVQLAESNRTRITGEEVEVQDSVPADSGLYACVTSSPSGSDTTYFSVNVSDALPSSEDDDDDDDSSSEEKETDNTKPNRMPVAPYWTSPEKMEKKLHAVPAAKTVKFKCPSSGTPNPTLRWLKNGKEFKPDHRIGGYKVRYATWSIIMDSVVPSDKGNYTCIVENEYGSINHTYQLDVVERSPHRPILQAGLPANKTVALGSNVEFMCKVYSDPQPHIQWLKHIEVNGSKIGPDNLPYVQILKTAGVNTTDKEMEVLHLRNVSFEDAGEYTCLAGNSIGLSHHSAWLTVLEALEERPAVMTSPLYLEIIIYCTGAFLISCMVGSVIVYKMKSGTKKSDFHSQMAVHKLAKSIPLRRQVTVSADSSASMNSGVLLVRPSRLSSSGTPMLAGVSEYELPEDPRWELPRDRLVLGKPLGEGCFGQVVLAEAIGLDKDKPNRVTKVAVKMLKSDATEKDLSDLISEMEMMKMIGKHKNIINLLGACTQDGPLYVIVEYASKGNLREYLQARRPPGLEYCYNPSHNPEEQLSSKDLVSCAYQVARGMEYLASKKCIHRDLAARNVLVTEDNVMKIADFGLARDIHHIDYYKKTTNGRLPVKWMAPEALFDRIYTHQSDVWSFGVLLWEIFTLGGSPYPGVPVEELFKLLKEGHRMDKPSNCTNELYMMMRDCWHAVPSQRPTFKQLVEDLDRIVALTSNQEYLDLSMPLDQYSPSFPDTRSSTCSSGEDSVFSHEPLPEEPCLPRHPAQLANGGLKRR
Insulin receptor (Homo sapiens), sequence (P06213 28-758 limits assumed): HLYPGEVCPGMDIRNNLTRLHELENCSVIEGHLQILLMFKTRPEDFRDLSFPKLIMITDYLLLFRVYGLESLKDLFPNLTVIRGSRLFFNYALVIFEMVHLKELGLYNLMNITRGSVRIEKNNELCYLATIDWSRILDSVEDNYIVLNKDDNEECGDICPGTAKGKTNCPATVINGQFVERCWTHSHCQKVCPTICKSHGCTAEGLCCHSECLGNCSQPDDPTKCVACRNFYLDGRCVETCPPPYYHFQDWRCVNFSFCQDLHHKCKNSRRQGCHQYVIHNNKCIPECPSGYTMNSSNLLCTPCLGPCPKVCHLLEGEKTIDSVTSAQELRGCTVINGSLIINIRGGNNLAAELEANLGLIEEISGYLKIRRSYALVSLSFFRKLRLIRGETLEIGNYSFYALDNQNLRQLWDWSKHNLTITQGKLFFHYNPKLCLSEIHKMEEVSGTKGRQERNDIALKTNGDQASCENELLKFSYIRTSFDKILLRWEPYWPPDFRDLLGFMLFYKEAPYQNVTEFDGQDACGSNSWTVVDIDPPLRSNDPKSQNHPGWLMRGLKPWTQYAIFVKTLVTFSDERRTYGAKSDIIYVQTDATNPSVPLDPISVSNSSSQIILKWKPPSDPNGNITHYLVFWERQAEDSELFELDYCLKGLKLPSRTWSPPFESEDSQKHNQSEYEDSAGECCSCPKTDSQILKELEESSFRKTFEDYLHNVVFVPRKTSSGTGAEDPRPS
Insulin receptor (Homo sapiens), sequence (P06213 763-1382 limits assumed): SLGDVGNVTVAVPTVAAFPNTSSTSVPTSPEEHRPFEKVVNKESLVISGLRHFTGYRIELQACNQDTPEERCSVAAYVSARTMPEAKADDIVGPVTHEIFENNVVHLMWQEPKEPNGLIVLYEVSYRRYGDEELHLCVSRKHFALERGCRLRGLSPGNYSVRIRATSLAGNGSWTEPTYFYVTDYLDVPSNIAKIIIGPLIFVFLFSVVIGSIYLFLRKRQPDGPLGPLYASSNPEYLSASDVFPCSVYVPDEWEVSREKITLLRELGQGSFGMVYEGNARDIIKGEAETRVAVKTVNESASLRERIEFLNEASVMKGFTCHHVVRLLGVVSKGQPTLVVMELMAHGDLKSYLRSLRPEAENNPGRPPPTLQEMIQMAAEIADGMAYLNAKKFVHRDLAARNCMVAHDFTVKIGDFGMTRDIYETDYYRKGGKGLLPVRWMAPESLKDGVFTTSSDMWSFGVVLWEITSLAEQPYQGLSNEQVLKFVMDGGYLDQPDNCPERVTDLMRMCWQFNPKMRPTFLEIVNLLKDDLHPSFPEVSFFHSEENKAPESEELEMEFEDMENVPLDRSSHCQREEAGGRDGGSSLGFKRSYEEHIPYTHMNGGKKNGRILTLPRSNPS
Epidermal growth factor receptor (Homo sapiens), sequence (P00533 whole entry): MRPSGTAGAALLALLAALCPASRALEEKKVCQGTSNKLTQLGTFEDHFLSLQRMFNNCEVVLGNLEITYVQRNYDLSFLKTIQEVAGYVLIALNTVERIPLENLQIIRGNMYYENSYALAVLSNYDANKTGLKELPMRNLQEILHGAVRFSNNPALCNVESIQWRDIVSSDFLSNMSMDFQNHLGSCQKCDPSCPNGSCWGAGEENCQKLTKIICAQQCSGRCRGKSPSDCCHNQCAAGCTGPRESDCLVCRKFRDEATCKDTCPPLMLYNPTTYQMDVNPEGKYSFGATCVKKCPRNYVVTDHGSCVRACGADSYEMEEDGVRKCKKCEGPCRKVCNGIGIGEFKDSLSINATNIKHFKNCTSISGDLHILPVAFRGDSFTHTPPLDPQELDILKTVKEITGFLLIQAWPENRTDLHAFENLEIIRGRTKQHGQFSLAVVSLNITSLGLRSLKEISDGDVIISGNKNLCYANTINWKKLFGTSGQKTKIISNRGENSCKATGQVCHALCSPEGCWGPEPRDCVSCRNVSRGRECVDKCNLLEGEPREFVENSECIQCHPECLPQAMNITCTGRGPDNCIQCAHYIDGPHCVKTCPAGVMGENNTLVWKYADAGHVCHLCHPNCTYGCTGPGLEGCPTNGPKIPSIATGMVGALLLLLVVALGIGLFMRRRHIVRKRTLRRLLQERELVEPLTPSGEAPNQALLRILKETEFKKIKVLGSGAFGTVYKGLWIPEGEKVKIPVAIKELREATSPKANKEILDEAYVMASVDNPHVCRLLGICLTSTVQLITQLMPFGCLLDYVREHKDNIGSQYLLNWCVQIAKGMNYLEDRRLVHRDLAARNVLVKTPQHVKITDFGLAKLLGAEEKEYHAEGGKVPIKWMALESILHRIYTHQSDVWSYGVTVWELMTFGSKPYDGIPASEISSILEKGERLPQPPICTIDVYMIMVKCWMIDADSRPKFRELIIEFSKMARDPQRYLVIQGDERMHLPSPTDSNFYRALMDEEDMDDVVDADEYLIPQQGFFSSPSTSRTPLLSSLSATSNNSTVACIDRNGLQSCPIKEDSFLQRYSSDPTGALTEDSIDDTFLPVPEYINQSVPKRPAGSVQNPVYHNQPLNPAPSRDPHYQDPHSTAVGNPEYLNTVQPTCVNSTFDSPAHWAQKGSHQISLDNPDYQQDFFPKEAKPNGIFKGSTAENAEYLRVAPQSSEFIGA

Take `CC(=O)Nc1cc(-c2c(-c3ccc(F)cc3)nc(S/C=C\C(=O)O)n2CC2CCCO2)ccn1` (racemic): the inhibition in test [1], in test [2], in test [3] and in test [4] was less than 50% in each case.
Take `CC(=O)Nc1cc(-c2c(-c3ccc(F)cc3)nc(S/C=C\C(=O)O)n2C2CC2)ccn1`: the inhibition in test [5] was 51.8%; in test [6] it was 60.6%; in test [1] it was less than 50%; in test [2], less than 50%; in test [3], less than 50%; in test [4], less than 50%.
In the case of `CC(=O)Nc1cc(-c2c(-c3ccc(F)cc3)nc(S/C=C\C(=O)O)n2C2CCCCC2)ccn1`, the inhibition in test [1], in test [2], in test [3] and in test [4] was less than 50% throughout.
On to `CC(=O)Nc1cc(-c2c(-c3ccc(F)cc3)nc(Sc3cccc(I)n3)n2C2CCCCC2)ccn1`, for which the inhibition in test [1], in test [2], in test [3] and in test [4] was less than 50% in each case.
Consider `COC(Cn1c(SC2CCC(C(=O)O)CC2O)nc(-c2ccc(F)cc2)c1-c1ccnc(NC(C)=O)c1)OC` (configuration not stated), for which the inhibition in test [1], in test [2], in test [3] and in test [4] was less than 50% in each case.
